Data published in ChEMBL document CHEMBL3112477, “Rat intestinal sucrase inhibition of constituents from the roots of Rosa rugosa Thunb” (Bioorg Med Chem Lett, 2014).

Assays:
[1] = target: Sucrase-isomaltase, intestinal (Rattus norvegicus, UniProt P23739); assay: Inhibition of rat intestinal sucrase using p-nitrophenyl-alpha-d-glucopyranoside as substrate incubated for 10 mins prior to substrate addition measured after 5 mins by spectrophotometry
[2] = target: Sucrase-isomaltase, intestinal (Rattus norvegicus) (UniProt P23739); assay: Inhibition of rat intestinal sucrase using p-nitrophenyl-alpha-d-glucopyranoside as substrate at 1 mM incubated for 10 mins prior to substrate addition measured after 5 mins by spectrophotometry
Sucrase-isomaltase, intestinal (Rattus norvegicus), sequence (P23739 1-1013 limits assumed): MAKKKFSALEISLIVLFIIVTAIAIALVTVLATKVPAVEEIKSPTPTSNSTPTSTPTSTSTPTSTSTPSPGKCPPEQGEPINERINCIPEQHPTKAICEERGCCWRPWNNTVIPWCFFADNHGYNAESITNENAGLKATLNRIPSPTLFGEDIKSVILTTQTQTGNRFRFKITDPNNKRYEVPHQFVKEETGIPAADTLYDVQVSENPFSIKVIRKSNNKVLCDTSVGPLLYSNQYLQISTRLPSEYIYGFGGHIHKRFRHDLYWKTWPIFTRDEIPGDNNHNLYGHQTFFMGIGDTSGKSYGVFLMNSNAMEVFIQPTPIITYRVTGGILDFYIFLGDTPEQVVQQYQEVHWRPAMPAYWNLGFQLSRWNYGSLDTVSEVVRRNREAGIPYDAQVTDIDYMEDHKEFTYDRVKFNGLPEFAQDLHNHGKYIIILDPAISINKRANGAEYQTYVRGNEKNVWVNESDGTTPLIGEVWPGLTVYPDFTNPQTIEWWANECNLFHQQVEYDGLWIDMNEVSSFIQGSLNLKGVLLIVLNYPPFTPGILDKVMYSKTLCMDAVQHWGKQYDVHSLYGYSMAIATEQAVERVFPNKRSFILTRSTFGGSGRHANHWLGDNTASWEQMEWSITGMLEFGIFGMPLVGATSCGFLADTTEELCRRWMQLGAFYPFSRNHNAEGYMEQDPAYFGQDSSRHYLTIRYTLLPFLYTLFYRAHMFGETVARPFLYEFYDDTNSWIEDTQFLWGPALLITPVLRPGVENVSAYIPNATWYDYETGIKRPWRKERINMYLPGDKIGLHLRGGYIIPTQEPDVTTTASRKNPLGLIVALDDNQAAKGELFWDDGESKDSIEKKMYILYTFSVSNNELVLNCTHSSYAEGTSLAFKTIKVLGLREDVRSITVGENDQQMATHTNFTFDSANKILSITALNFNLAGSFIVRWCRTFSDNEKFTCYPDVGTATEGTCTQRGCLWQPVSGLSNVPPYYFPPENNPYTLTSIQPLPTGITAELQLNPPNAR
Sucrase-isomaltase, intestinal (Rattus norvegicus), sequence (P23739 1014-1841 limits assumed): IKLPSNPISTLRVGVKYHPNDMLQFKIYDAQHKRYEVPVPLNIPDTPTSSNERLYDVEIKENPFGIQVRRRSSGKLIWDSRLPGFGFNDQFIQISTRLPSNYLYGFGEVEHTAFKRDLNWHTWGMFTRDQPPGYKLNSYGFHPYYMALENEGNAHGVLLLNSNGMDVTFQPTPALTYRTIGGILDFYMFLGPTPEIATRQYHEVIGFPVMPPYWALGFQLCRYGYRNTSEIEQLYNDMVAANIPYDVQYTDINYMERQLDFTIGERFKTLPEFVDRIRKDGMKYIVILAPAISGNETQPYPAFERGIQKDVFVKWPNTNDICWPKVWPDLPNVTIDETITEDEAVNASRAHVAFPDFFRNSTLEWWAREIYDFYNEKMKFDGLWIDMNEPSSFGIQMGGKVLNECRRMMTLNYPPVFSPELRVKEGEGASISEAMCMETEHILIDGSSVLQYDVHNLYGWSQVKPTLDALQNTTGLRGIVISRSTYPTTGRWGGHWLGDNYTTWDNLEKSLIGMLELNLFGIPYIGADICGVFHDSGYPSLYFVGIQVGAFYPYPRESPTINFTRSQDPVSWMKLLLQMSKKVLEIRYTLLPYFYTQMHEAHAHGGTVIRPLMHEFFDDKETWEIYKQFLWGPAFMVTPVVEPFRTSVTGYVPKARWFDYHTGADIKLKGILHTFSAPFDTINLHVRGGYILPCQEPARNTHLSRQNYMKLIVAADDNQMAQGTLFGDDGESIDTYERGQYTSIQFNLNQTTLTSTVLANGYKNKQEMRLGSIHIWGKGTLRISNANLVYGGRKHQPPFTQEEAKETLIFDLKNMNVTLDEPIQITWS

Sucrase-isomaltase, intestinal, sequence (P23739 1-1013 limits assumed): as the sequence (P23739 1-1013 limits assumed) above
Sucrase-isomaltase, intestinal, sequence (P23739 1014-1841 limits assumed): as the sequence (P23739 1014-1841 limits assumed) above

SMILES	IC50 [1]	inhibition [2]
CC1(C)C=C(C=O)[C@]2(C)[C@H]3CC=C4[C@@H]5[C@H](O)C(C)(C)CC[C@]5(C(=O)O)CC[C@@]4(C)[C@]3(C)CC[C@@H]12	> 1000 µM	32.4%
Oc1ccc([C@@H]2Oc3cc(O)ccc3[C@H](c3c(O)cc(O)c4c3O[C@H](c3ccc(O)c(O)c3)[C@H](O)C4)[C@H]2O)cc1	250 µM	84.7%
CC1=CC(=O)CC(C)(C)[C@H]1/C=C/[C@@H](C)O[C@@H]1O[C@H](CO)[C@@H](O)[C@H](O)[C@H]1O	> 1000 µM	12.5%
Oc1cc(O)c2c(c1)O[C@@]1(c3ccc(O)c(O)c3)Oc3cc(O)c4c(c3[C@@H]2[C@H]1O)O[C@@H](c1ccc(O)c(O)c1)[C@H](O)[C@H]4c1c(O)cc(O)c2c1O[C@H](c1ccc(O)c(O)c1)[C@H](O)C2 [AESCULTITANNIN B]	400 µM	66.8%
Oc1cc(O)c2c(c1)O[C@H](c1ccc(O)c(O)c1)[C@H](O)C2 [(-)-EPICATECHIN]	650 µM	61.9%
Oc1ccc2c(c1)O[C@H](c1ccc(O)c(O)c1)[C@@H](O)[C@@H]2c1c(O)cc2c(c1O)C[C@H](O)[C@@H](c1ccc(O)c(O)c1)O2	520 µM	72.2%
Oc1cc(O)c2c(c1)O[C@H](c1ccc(O)c(O)c1)[C@@H](O)C2 [CIANIDANOL]	310 µM	80%
C=C(C)[C@@H]1CC[C@]2(C(=O)O)CC[C@]3(C)[C@H](CC[C@@H]4[C@@]5(C)CC[C@H](O)C(C)(C)[C@@H]5CC[C@]43C)[C@@H]12		< 10%
C[C@@H]1CC[C@]2(C(=O)O)CC[C@]3(C)C(=CC[C@@H]4[C@@]5(C)CC(=O)[C@H](O)C(C)(C)[C@@H]5CC[C@]43C)[C@@H]2[C@]1(C)O		< 10%
Oc1ccc([C@H]2Oc3cc(O)ccc3[C@H](c3c(O)cc(O)c4c3O[C@H](c3ccc(O)c(O)c3)[C@H](O)C4)[C@H]2O)cc1	480 µM	68.4%
CC1(C)[C@@H](O)CC[C@]2(C)[C@H]3CC[C@@H]4C=C[C@H](O)[C@@]4(C)[C@]3(C)CC[C@@H]12	> 1000 µM	40%
C[C@@H]1CC[C@]2(C(=O)O)CC[C@]3(C)C(=CC[C@@H]4[C@@]5(C)C=C(O)C(=O)C(C)(C)[C@@H]5CC[C@]43C)[C@@H]2[C@]1(C)O		< 10%
CC1=CC(=O)CC(C)(C)/C1=C\CC(C)O[C@@H]1O[C@H](CO)[C@@H](O)[C@H](O)[C@H]1O (some centres not stated)	> 1000 µM	28.6%
CC1=CC(=O)CC(C)(C)/C1=C/CC(C)O[C@@H]1O[C@H](CO)[C@@H](O)[C@H](O)[C@H]1O (some centres not stated)	> 1000 µM	28.3%
C[C@H]1O[C@H](O[C@H]2[C@H](O)[C@@H](O)[C@@H](O[C@H]3[C@H](O)[C@@H](O)C(O)O[C@@H]3CO)O[C@@H]2CO)[C@H](O)[C@@H](O)[C@@H]1N[C@H]1C=C(CO)[C@@H](O)[C@H](O)[C@H]1O (some centres not stated)		51%
Oc1cc(O)c2c(c1)O[C@H](c1ccc(O)c(O)c1)[C@@H](O)[C@@H]2c1c(O)cc(O)c2c1O[C@H](c1ccc(O)c(O)c1)[C@@H](O)C2	430 µM	76%
C[C@H]1[C@H](C)CC[C@]2(C(=O)O)CC[C@]3(C)C(=CC[C@@H]4[C@@]5(C)CC[C@H](O)C(C)(C)[C@@H]5CC[C@]43C)[C@H]12 [URSOLIC ACID]	> 1000 µM	32%
CC1=CC(=O)CC(C)(C)[C@H]1/C=C/[C@H](C)O[C@@H]1O[C@H](CO)[C@@H](O)[C@H](O)[C@H]1O	> 1000 µM	14%
